According to patent US20250145561A1, “4-SUBSTITUTED-PHENYL ACETAMIDES AND ARYLUREAS AS AGONISTS FOR THE ORPHAN RECEPTOR GPR88” (RESEARCH TRIANGLE INSTITUTE, priority 2022, published 2025):

Biological target: T1, GPR88 (Homo sapiens, UniProt Q9GZN0)
T1 construct: expressed in transfected cells
Experiment: Lance Ultra TR-FRET cAMP assay using stable PPLS-HA-GPR88 CHO cells
Format: cell-based
Conditions: for Emax: CHO; for EC50 / cAMP pEC50: stable PPLS-HA-GPR88 CHO cells; for EC50: value in parentheses beside pEC50; for cAMP pEC50: 300 nM forskolin, mean ± standard error of at least three independent experiments in duplicate
Description: The compounds of the present disclosure offer potent agonism to the orphan receptor GPR88. As such, the compounds of the present disclosure provide therapeutic potential for the treatment of striatal associated disorders such as Parkinson's disease, schizophrenia, and alcohol addiction. All compounds were evaluated for the GPR88 agonist activity in the inventors' previously established in vitro GPR88 Lance TR-FRET cAMP assay. See, supra, Jin et al., 2018, Rahman et al., 2020, and Rahman et al., 2021. As will be described, the TR-FRET signal was converted to fmol cAMP by interpolating from the standard cAMP curve. Fmol cAMP was plotted against the log of compound concentration and data were fit to a three-parameter logistic curve to generate maximum response (Emax) and EC50 values.
Lance™ Ultra cAMP assay using stable PPLS-HA-GPR88 CHO cells. All cAMP assays were performed using the inventors' previously published methods. […] ACS Chemical Neuroscience 2016, 7, 1418-1432, which is incorporated by reference herein with regard to such teaching. Stimulation buffer containing 1× Hank's Balanced Salt Solution (HBSS), 5 mM HEPES, 0.1% BSA stabilizer, and 0.5 mM final IBMX was prepared and titrated to pH 7.4 at room temperature. Serial dilutions of the test compounds (5 μL) and 300 nM forskolin (5 μL), both prepared at 4× the desired final concentration in 2% DMSO/stimulation buffer, were added to a 96-well white ½ area microplate (PerkinElmer). A cAMP standard curve was prepared at 4× the desired final concentration in stimulation buffer and 5 μL was added to the assay plate. Stable PPLS-HA-GPR88 CHO cells were lifted with versene and spun at 270 g for 10 minutes. The cell pellet was resuspended in stimulation buffer and 4,000 cells (10 μL) were added to each well except wells containing the cAMP standard curve. After incubating for 30 min at room temperature, Eu-cAMP tracer and uLIGHT-anti-cAMPworking solutions were added per the manufacturer's instructions. After incubation at room temperature for 1 hour, the TR-FRET signal (ex 337 nm) was read on a CLARIOstar multimode plate reader (BMG Biotech, Cary, NC).
Data Analysis. The TR-FRET signal (665 nm) was converted to fmol cAMP by interpolating from the standard cAMP curve. Fmol cAMP was plotted against the log of compound concentration and data were fit to a three-parameter logistic curve to generate EC50 values (Prism, version 6.0, GraphPad Software, Inc., San Diego, CA).

T1 sequence (Q9GZN0 whole entry): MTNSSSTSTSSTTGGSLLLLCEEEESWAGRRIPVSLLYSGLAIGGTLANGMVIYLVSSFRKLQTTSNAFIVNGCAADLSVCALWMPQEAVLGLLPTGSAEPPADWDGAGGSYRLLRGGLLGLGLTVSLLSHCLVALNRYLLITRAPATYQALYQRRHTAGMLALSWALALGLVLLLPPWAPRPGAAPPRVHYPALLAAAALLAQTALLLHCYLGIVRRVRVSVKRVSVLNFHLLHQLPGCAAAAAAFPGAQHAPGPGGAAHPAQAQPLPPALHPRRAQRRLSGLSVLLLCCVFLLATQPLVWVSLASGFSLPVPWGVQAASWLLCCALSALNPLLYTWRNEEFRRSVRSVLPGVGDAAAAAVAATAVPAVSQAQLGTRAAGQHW

SMILES	Emax [%]	EC50 [nM]	cAMP pEC50
CCCc1ccc(-c2ccc(N(C[C@@H](N)[C@@H](C)CC)C(=O)N[C@@H](COC)c3ccccc3)cc2)cc1 [Compound 48, 3-[(2S,3S)-2-Amino-3-methylpentyl]-1-[(1 R)-2-methoxy-1-phenylethyl]-3-{4′-propyl-[1,1′-biphenyl]-4-yl}urea]	110 ± 5	1550	–
CCc1ccc(-c2ccc(N(C[C@@H](N)[C@@H](C)OC)C(=O)N[C@@H](C)c3ccccc3)cc2)cc1 [Compound 56, 3-[(2R,3R)-2-Amino-3-methoxybutyl]-1-[(1 S)-1-phenylethyl]-3-{4′-ethyl-[1,1′-biphenyl]-4-yl}urea]	116 ± 9	331	–
CO[C@H](C)[C@H](N)CN(C(=O)N[C@@H](C)c1ccccc1)c1ccc(C#CCC(C)C)cc1 [Compound 60, 3-[(2R,3R)-2-amino-3-methoxybutyl]-3-[4-(4-methylpent-1-yn-1-yl)phenyl]-1-[(1 S)-1-phenylethyl]urea]	103 ± 4	363	–
CCCC(C)COc1ccc([C@@H](CO)C(=O)N[C@H](C)c2ccc(F)cc2)cc1 (stereo partly drawn) [Compound 12, (2S)—N-[(1 R)-1-(4-Fluorophenyl)ethyl]-3-hydroxy-2-{4-[(2-methylpentyl)oxy]phenyl}propenamide]	92 ± 3	–	–
CCCc1ccc(-c2ccc(N(C[C@@H](N)[C@@H](C)CC)C(=O)NCc3ccccc3)cc2)cc1 [Compound 40, 3-[(2S,3S)-2-Amino-3-methylpentyl]-1-benzyl-3-{4′-propyl-[1,1′-biphenyl]-4-yl}urea]	97 ± 4	2000	–
COc1ccc(-c2ccc(N(C[C@@H](N)[C@@H](C)OC)C(=O)N[C@@H](C)c3ccccc3)cc2)cc1 [Compound 57, 3-[(2R,3R)-2-Amino-3-methoxybutyl]-1-[(1 S)-1-phenylethyl]-3-{4′-methoxy-[1,1′-biphenyl]-4-yl}urea]	101 ± 3	891	–
CCCc1ccc(-c2ccc(N(C[C@@H](N)[C@@H](C)CC)C(=O)N[C@H]3C[C@@H]3c3ccccc3)cc2)cc1 [Compound 45, 1-[(2S,3S)-2-Amino-3-methylpentyl]-3-[(1 S,2R)-2-phenylcyclopropyl]-1-(4′-propyl-[1,1′-biphenyl]-4-yl}urea]	110 ± 5	2290	–
CCCC(C)COc1ccc([C@@H](CO)C(=O)NCc2ccccc2)cc1 (stereo partly drawn) [Compound 15, (2S)—N-Benzyl-3-hydroxy-2-{4-[(2-methylpentyl)oxy]phenyl}propenamide]	99 ± 9	–	–
CCCc1ccc(-c2ccc(CC(=O)N[C@H](C)c3ccccc3)cc2)cc1 [Compound 26, N-[(1 R)-1-Phenylethyl]-2-{4′-propyl-[1,1′-biphenyl]-4-yl}acetamide]	95 ± 5	257	–
CCCC(C)COc1ccc([C@@H](CO)C(=O)N[C@H](C)c2cccs2)cc1 (stereo partly drawn) [Compound 23, (2S)-3-Hydroxy-2-{4-[(2-methylpentyl)oxy]phenyl}-N-[(1 R)-1-(thiophen-2-yl)ethyl]propenamide]	93 ± 5	–	–
CC[C@H](C)COc1ccc([C@@H](CO)C(=O)N[C@H](C)c2ccccc2)cc1 [Compound 7, (2S)-3-Hydroxy-2-{4-[(2S)-2-methylbutoxy]phenyl}-N-[(1 R)-1-phenylethyl]propenamide]	88 ± 7	2000	–
CCCc1ccc(-c2ccc(N(C[C@H](C)N)C(=O)N[C@@H](C)c3ccccc3)cc2)cc1 [Compound 52, 3-[(2S)-2-Aminopropyl]-1-[(1 S)-1-phenylethyl]-3-{4′-propyl-[1,1′-biphenyl]-4-yl}urea]	107 ± 3	1290	–
CCCC(C)COc1ccc([C@@H](CO)C(=O)N[C@H](C)c2ccccc2C)cc1 (stereo partly drawn) [Compound 9, (2S)-3-Hydroxy-2-{4-[(2-methylpentyl)oxy]phenyl}-N-[(1 R)-1-(2-methylphenyl)ethyl]propenamide]	48 ± 8	–	–
CCCc1ccc(-c2ccc(N(C[C@@H](N)CC(C)C)C(=O)N[C@@H](C)c3ccccc3)cc2)cc1 [Compound 50, 3-[(2S)-2-Amino-4-methylpentyl]-1-[(1 S)-1-phenylethyl]-3-{4′-propyl-[1,1′-biphenyl]-4-yl}urea]	112 ± 8	1200	–
C[C@@H](NC(=O)[C@H](CO)c1ccc(-c2ccc(OC3CCC3)cc2)cc1)c1ccccc1 [Compound 35, (2S)-2-{4′-Cyclobutoxy-[1,1′-biphenyl]-4-yl}-3-hydroxy-N-[(1 R)-1-phenylethyl]propenamide]	90 ± 10	224	–
CCCC(C)COc1ccc([C@@H](CO)C(=O)N[C@H](COC)c2ccccc2)cc1 (stereo partly drawn) [Compound 18, (2S)-3-Hydroxy-N-[(1 S)-2-methoxy-1-phenylethyl]-2-{4-[(2-methylpentyl)oxy]phenyl}propenamide]	91 ± 4	–	–
CCCc1ccc(-c2ccc(N(C[C@@H](N)[C@@H](C)CC)C(=O)N[C@@H](C)c3ccco3)cc2)cc1 [Compound 49, 1-[(2S,3S)-2-Amino-3-methylpentyl]-3-[(1 S)-1-(furan-2-yl)ethyl]-1-{4′-propyl-[1,1′-biphenyl]-4-yl}urea]	115 ± 5	2570	–
CC[C@@H](C)COc1ccc([C@@H](CO)C(=O)N[C@H](C)c2ccccc2)cc1 [Compound 8, (2S)-3-Hydroxy-2-{4-[(2R)-2-methylbutoxy]phenyl}-N-[(1 R)-1-phenylethyl]propenamide]	96 ± 13	3090	–

Other lines, results leading:

Emax [%]	EC50 [nM]	cAMP pEC50	SMILES
94 ± 13	200	–	CCCC(C)COc1ccc([C@@H](CO)C(=O)N[C@H](C)c2ccccc2)cc1 (stereo partly drawn) [Compound 4, (2S)-3-Hydroxy-2-{4-[(2-methylpentyl)oxy]phenyl}-N-[(1 R)-1-phenylethyl]propenamide]
–	–	Inactive	CCCC(C)COc1ccc([C@@H](CO)C(=O)N[C@@H](C)c2ccccc2)cc1 (stereo partly drawn) [Compound 5, (2S)-3-Hydroxy-2-{4-[(2-methylpentyl)oxy]phenyl}-N-[(1S)-1-phenylethyl]propenamide]
96	631	–	CCCc1ccc(-c2ccc([C@@H](Cn3ccnn3)C(=O)N[C@H](C)c3ccccc3)cc2)cc1 [Compound 31, (2S)—N-[(1 R)-1-Phenylethyl]-2-{4′-propyl-[1,1′-biphenyl]-4-yl}-3-(1H-1,2,3-triazol-1-yl)propenamide]
96 ± 3	138	–	CCCc1ccc(-c2ccc([C@@H](CO)C(=O)N[C@H](C)c3ccccc3)cc2)cc1 [Compound 25, (2S)-3-Hydroxy-N-[(1 R)-1-phenylethyl]-2-{4′-propyl-[1,1′-biphenyl]-4-yl}propenamide]
–	–	Inactive	CCCC(C)COc1ccc([C@H](CO)C(=O)N[C@@H](C)c2ccccc2)cc1 (stereo partly drawn) [Compound 6, (2R)-3-Hydroxy-2-{4-[(2-methylpentyl)oxy]phenyl}-N-[(1 S)-1-phenylethyl]propenamide]
86	245	–	C[C@@H](NC(=O)[C@H](CO)c1ccc(-c2ccc(OC3CC3)cc2)cc1)c1ccccc1 [Compound 34, (2S)-2-{4′-cyclopropoxy-[1,1′-biphenyl]-4-yl}-3-hydroxy-N-[(1 R)-1-phenylethyl]propenamide]
74 ± 7	355	–	C[C@@H](NC(=O)[C@H](CO)c1ccc(-c2ccc(C3CCC3)cc2)cc1)c1ccccc1 [Compound 32, (2S)-2-{4′-Cyclobutyl-[1,1′-biphenyl]-4-yl}-3-hydroxy-N-[(1 R)-1-phenylethyl]propenamide]
93 ± 9	501	–	CCCc1ccc(-c2ccc([C@@H](CC)C(=O)N[C@H](C)c3ccccc3)cc2)cc1 [Compound 27, (2R)—N-[(1 R)-1-Phenylethyl]-2-{4′-propyl-[1,1′-biphenyl]-4-yl}butanamide]
102 ± 2	479	–	CC(C)C#Cc1ccc([C@@H](CO)C(=O)N[C@H](C)c2ccccc2)cc1 [Compound 37, (2S)-3-Hydroxy-2-[4-(3-methylbut-1-yn-1-yl)phenyl]-N-[(1 R)-1-phenylethyl]propenamide]
–	–	Inactive	CCCC(C)COc1ccc([C@@H](CO)C(=O)Nc2ccccc2)cc1 (stereo partly drawn) [Compound 14, (2S)-3-Hydroxy-2-{4-[(2-methylpentyl)oxy]phenyl}-N-phenylpropanamide]
96 ± 3	1100	–	CCCc1ccc(-c2ccc([C@@H](Cn3cncn3)C(=O)N[C@H](C)c3ccccc3)cc2)cc1 [Compound 30]
